US9255272B2, “Use of inhibitors of leukotriene B4 receptor BLT2 for treating asthma” (Korea University Research & Business Foundation, priority 2007, dated 2016)

How the values were obtained:
[1] = test system: BLT2 mRNA; experiment: BLT2 mRNA level in lung of OVA-challenged mice (semiquantitative RT-PCR, real-time PCR); assay type: in vivo, mouse
Protocol: (§1) Female BALB/c mice and C57BL/6 mice (7 weeks old; 18-20 g) were obtained from Orientbion Inc. (Seoungnam, Korea). Sensitization and challenge were carried out as described previously with some modification (28). Briefly, female C57BL/6 mice (7 weeks old; 18-20 g) were immunized by intraperitoneal (i.p.) injection of 200 μg ovalbumin (OVA) emulsified in 2.5 mg of adjuvant aluminum hydroperoxide gel (alum) (Pierce, Rockford, Ill.). A second i.p. injection of 20 μg OVA adsorbed onto alum (2.5 mg) was administered 10 days later. After an additional 10 days, mice were exposed to an aerosol of 1% OVA in saline for 30 min daily on 3 consecutive days. On day 25, mice were finally challenged by provocation with 10% OVA aerosol. […]
(§2) Total RNA was extracted from lung samples using Easy-blue RNA extraction reagent (Intron, Korea). […] For the semiquantitative analysis of transcripts, the optimal PCR conditions were first determined by linear amplification of glyceraldehyde-3-phosphate dehydrogenase (GAPDH). […]
as §2

[2] = test system: OVA-challenged mice; experiment: AHR (Penh) in response to methacholine in OVA-challenged mice; assay type: in vivo, mouse; conditions: for reduction of Penh (based on area-under-the-curve calculations): methacholine 6.25-50 mg/ml, 24 h after last OVA challenge
Protocol: as §1, with “aerosol. For inhibition experiments, sense or antisense BLT2 (1.6 mg/kg) was injected intravenously 24 h and then 1 h before the 10% OVA challenge. The mice were then killed on day 27 to assess asthmatic phenotypes. Antisense BLT2 oligonucleotide (5′-[…]-3′ (SEQ ID NO: 15)), sense BLT2 oligonucleotide (5′-[…]-3′ (SEQ ID NO: 16)).” for “aerosol.”
Airway AHR was measured in unrestrained, conscious mice 24 h after the final OVA challenge using a whole-body plethysmograph, as previously described (29). Mice were placed in a barometric plethysmographic chamber (All Medicus Co., Seoul, Korea), and baseline readings were taken and averaged for 3 min. […] Readings were taken and averaged for 3 min after each nebulization, and enhanced pause (Penh) was determined. Signals were analyzed to derive whole body flow parameters including respiratory rate, tidal volume, inspiratory time (Ti), expiratory time (Te)1. peak inspiratory flow (PIF), peak expiratory flow (PEF), and relaxation time (RT). […] Baseline Penh measurements for each animal were recorded for 3 min and averaged. Results are expressed as the percentage increase of Penh following challenge with each concentration of methacholine, where the baseline Penh (after saline challenge) is expressed as 100%. Penh values averaged for 3 min after each nebulization were evaluated. […]

Compound: CCc1cc(C(C)=O)c(O)cc1OCCCCCC(C)(C)c1nnn[nH]1 [LY255283, 1-[5-ethyl-2-hydroxy-4-[[6-methyl-6-(1H-tetrazol-5-yl)heptyl]oxy]phenyl]-ethanone, reference compound]
- level of BLT2 mRNA in the lung ([1]; BALB/c mice, LY255283 2.5 mg/kg i.v. 1 hr before 1% OVA challenge, 48 h after challenge): significantly reduced
- reduction of Penh (based on area-under-the-curve calculations) ([2]; LY255283 2.5 mg/kg i.v.): −70%

Compound: antisense BLT2: Antisense BLT2 oligonucleotide 5′-GCTCAGTAGTGTCTCATTCC-3′ (SEQ ID NO: 15) (listed as DNA, chemistry not fully specified)
- BLT2 expression in the lung (mRNA) ([1]; C57BL/6 mice, 1.6 mg/kg i.v. 24 hr and 1 hr before 10% OVA challenge, 48 hr after challenge): reduced
- reduction of Penh (based on area-under-the-curve calculations) ([2]; antisense BLT2 1.6 mg/kg i.v.): −70%

Compound: antisense Rac: phosphorothioate 17-mer to the 5′ end of murine Rac mRNA, 5′-CACTTGATGGCCTGCAT-3′ (SEQ ID NO: 22) (listed as DNA, chemistry not fully specified)
- AHR after allergen challenge ([2]; mouse model system for asthma, antisense oligomers to Rac1): remarkably reduced
